Source: patent US8536193B2, “Inhibitors of AKT activity” (Merck Sharp & Dohme Corp., priority 2008, dated 2013)

Tests used:
[1] = target: Akt2 kinase (Homo sapiens (Human), UniProt P31751); assay: Akt kinase assay (HTRF, GSK-derived biotinylated peptide substrate); type: biochemical
Description: (§1) Activated Akt isoforms and pleckstrin homology domain deletion constructs were assayed utilizing a GSK-derived biotinylated peptide substrate. The extent of peptide phosphorylation was determined by Homogeneous Time Resolved Fluorescence (HTRF) using a lanthanide chelate (Lance)-coupled monoclonal antibody specific for the phosphopeptide in combination with a streptavidin-linked allophycocyanin (SA-APC) fluorophore which will bind to the biotin moiety on the peptide. When the Lance and APC are in proximity (i.e. bound to the same phosphopeptide molecule), a non-radiative energy transfer takes place from the Lance to the APC, followed by emission of light from APC at 665 nm.
(§2) Materials Required for the Assay:
(§3) A. Activated Akt isozyme or pleckstrin homology domain deleted construct
(§4) B. Akt peptide substrate: GSK3α (S21) Peptide #3928 biotin-[…] (SEQ.ID.NO.:15), Macromolecular Resources.
(§5) C. Lance labeled anti-phospho GSK3α monoclonal antibody (Cell Signaling Technology, clone #27).
(§6) D. SA-APC (Prozyme catalog no. PJ25S lot #896067).
(§7) E. Microfluor®B U Bottom Microtiter Plates (Dynex Technologies, Catalog no. 7205).
(§8) F. Discovery® HTRF Microplate Analyzer, Packard Instrument Company.
(§9) G. 100× Protease Inhibitor Cocktail (PIC): 1 mg/mL benzamidine, 0.5 mg/mL pepstatin, 0.5 mg/mL leupeptin, 0.5 mg/mL aprotinin.
(§10) H. 10× Assay Buffer: 500 mM HEPES, pH 7.5, 1% PEG, […], 1 mM EGTA, 1% BSA, 20 mM θ-Glycerol phosphate.
(§11) I. Quench Buffer: 50 mM HEPES pH 7.3, 16.6 mM EDTA, 0.1% BSA, 0.1% Triton X-100, 0.17 nM Lance labeled monoclonal antibody clone #27, 0.0067 mg/mL SA-APC
(§12) J. ATP/MgCl2 working solution: 1× Assay buffer, 1 mM DTT, 1×PIC, 125 mM KCl, 5% Glycerol, 25 mM MgCl2, 375 μM ATP
(§13) K. Enzyme working solution: 1× Assay buffer, 1 mM DTT, 1× PIC, 5% Glycerol, active Akt. The final enzyme concentrations were selected so that the assay was in a linear response range.
(§14) L. Peptide working solution: 1× Assay buffer, 1 mM DTT, 1× PIC, 5% Glycerol, 2 μM GSK3 biotinylated peptide #3928
(§15) The reaction is assembled by adding 16 μl, of the ATP/MgCl2 working solution to the appropriate wells of a 96-well microtiter plate. Inhibitor or vehicle (1.0 μL) is added followed by 10 μL of peptide working solution. The reaction is started by adding 13 μL of the enzyme working solution and mixing. The reaction is allowed to proceed for 50 min and then stopped by the addition of 60 μl, HTRF quench buffer. The stopped reactions were incubated at room temperature for at least 30 min and then read on the Discovery instrument.

[2] = target: Akt1 kinase (Homo sapiens (Human), UniProt P31749); assay: as above; type: biochemical
Chain of Akt1 kinase (P31749 whole entry): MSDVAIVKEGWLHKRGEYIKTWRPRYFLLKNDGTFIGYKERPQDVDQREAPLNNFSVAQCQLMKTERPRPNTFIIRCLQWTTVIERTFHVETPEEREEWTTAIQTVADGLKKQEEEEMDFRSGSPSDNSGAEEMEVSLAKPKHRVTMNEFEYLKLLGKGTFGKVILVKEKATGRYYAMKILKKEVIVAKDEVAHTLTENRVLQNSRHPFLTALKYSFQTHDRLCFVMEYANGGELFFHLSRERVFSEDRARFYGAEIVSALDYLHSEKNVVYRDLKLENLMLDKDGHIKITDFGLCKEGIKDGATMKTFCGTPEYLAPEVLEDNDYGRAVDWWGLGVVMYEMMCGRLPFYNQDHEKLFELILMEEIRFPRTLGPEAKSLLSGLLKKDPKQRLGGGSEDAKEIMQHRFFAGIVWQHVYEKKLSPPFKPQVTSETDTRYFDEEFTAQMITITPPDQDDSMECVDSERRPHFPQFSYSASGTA
Description: as §1, §2, §3, §4, §5, §6, §7, §8, §9, §10, §11, §12, §13, §14, §15

Chain of Akt2 kinase (P31751 whole entry, the tested form may be a part, canonical isoform): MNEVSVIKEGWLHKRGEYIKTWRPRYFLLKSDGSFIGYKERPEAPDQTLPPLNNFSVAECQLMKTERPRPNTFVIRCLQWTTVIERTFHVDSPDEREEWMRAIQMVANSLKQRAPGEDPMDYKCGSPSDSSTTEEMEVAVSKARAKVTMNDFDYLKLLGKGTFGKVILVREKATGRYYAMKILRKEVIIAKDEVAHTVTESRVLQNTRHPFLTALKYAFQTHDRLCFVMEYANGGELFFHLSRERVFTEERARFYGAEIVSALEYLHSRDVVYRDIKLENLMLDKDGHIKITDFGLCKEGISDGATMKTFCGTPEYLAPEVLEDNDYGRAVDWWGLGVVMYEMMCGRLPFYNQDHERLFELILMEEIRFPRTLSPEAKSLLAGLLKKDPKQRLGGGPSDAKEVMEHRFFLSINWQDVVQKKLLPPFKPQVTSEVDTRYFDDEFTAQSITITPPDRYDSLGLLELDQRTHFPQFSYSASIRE

IC50 [1] [nM] | IC50 [2] [nM] | Compound
200 | 39 | O=C(Cc1cccnc1)NC1(c2ccc(-c3nc4ccc5nnc(O)n5c4cc3-c3ccccc3)cc2)CCC1 [EXAMPLE 1-9, N-{1-[4-(1-hydroxy-8-phenyl[1,2,4]triazolo[4,3-a]-1,5-naphthylidin-7-yl)phenyl]cyclobutyl}-2-(3-pyridinyl)acetamide]
32 | 2.3 | NC1(c2ccc(-c3nc4ccc5nnc(-c6ccccc6)n5c4cc3-c3ccccc3)cc2)CCC1 [EXAMPLE 2-1, 1-[4-(1,8-diphenyl[1,2,4]triazolo[4,3-a]-1,5-naphthylidin-7-yl)phenyl]cyclobutanamine]
24 | 6.1 | Nc1nnc2ccc3nc(-c4ccc(C5(N)CCC5)cc4)c(-c4ccccc4)cc3n12 [EXAMPLE 3-1, 7-[4-(1-aminocyclobutyl)phenyl]-8-phenyl[1,2,4]triazolo[4,3-a]-1,5-naphthylidin-1-amine]
50 | 8.2 | Cc1nnc2ccc3nc(-c4ccc(C5(N)CCC5)cc4)c(-c4ccccc4)cc3n12 [EXAMPLE 4-1, 1-[4-(1-methyl-8-phenyl[1,2,4]triazolo[4,3-a]-1,5-naphthylidin-7-yl)phenyl]cyclobutanamine]
140 | 10 | NC1(c2ccc(-c3nc4ccc5nnc(-c6ccccc6)n5c4cc3-c3ccccc3)cc2)CC(F)(F)C1 [EXAMPLE 5-12, 1-[4-(1,8-diphenyl[1,2,4]triazolo[4,3-a]-1,5-naphthyridin-7-yl)phenyl]-3,3-difluorocyclobutanamine]
12.6 | 0.7 | CC1(O)CC(N)(c2ccc(-c3nc4ccc5nnc(-c6nnc[nH]6)n5c4cc3-c3ccccc3)cc2)C1 (stereo not drawn) [EXAMPLE 7-26, cis-3-amino-1-methyl-3-{4-[8-phenyl-1-(4H-1,2,4-triazol-3-yl)[1,2,4]triazolo[4,3-a][1,5]naphthyridin-7-yl]phenyl}cyclobutanol]
1.7 | 0.38 | C[C@]1(O)C[C@@](N)(c2ccc(-c3nc4ccc5nnc(C(F)F)n5c4cc3-c3ccccc3)cc2)C1 [EXAMPLE 10-4, trans-3-amino-3-{4-[1-(difluoromethyl)-8-phenyl[1,2,4]triazolo[4,3-a]-1,5-naphthyridin-7-yl]phenyl}-1-methylcyclobutanol]
2.2 | 0.34 | NC1(c2ccc(-c3nc4ccc5nnc(C(F)F)n5c4cc3-c3ccccc3)cc2)CC(O)(C2CC2)C1 (stereo not drawn) [EXAMPLE 10-5, trans-3-amino-1-cyclopropyl-3-{4-[1-(difluoromethyl)-8-phenyl-[1,2,4]triazolo[4,3-a]-1,5-naphthyridin-7-yl]phenyl}cyclobutanol]
